Here are results for five compounds from patent US7772197B2, “1,3,5-triazines for treatment of viral diseases” (1,3,5-Triazines for Treatment of Viral Diseases, priority 2002, dated 2010).

Where two headings read alike, the source gives them in different places.

As usually defined, the EC50 is the concentration needed to bring the measured effect to its halfway point. Low values mean higher potency in that assay, high ones lower potency in that assay. As a reminder, the IC50 is the concentration that inhibits the measured activity by half. A higher IC50 goes with weaker potency in that assay.

The subject of data set [1] is HIV-1 RTMC, with 67N, 70R, 215F and 219Q mutations. Briefly: Sensitivity of NRTI-resistant HIV strain RTMC, MT-2 cells. The following applies: Human immunodeficiency virus 1, MT2. The class given is cell-based. As for the experimental part:
(§1) 0.1 ml of a 3×10^5 cells/ml MT-2 cell suspension were seeded in 96-well plates at 3×10^4 cells/well. The compounds to be assayed were diluted in a separate 96-well at ten times (10×) the concentration needed for the screen. 22 μl of the 10× compounds was then added to the wells in triplicate except for six control wells, containing uninfected MT-2 cells alone (3 wells) and untreated HIV-infected MT-2 cells (3 wells). This was followed by the addition of HIV-1 at an MOI of 0.01, except for the three wells serving as the uninfected control. 0.1 ml of cRPMI was added to the uninfected well instead of virus. After the addition of virus, the 96-well plate was centrifuged at 1,200×g for two hours to enhance the adsorption of the virus by the MT-2 cells (see, e.g., O'Doherty, J. Virol. 74:10074-10080 (2000)). After the centrifugation step, the 96-well plate was then incubated in a 37° C. incubator containing 5% CO2 for three days. At the end of this time period the virus and cells were mixed by gentle pipetting followed by a 1 minute spin at 600×g to pellet the cells. The supernatant of each well was then serially diluted 1,000-fold into new 96-well plates to serve as inoculum for the next passage and assayed by ELISA for the amount of p24 produced. The next passage was performed as described above, except that the virus used to infect the cells was derived from the 1,000-fold dilution plate.
(§2) To determine if there is resistance of HIV NRTI resistant strains to mutagenic nucleoside analogues, NRTI resistant strains were grown in the presence of 5-aza-dC to determine whether the EC50 for 5-aza-dC is different from the WT strain (HIV-1 LAI). […] Growth of HIV NRTI resistant strains in the presence of the appropriate concentration of NRTI was used as a positive control.
(§3) Three HIV NRTI resistant strains (HIV-1 LAI-M184V, HIV-1 RTMDR1, with 74V, 41L, 106A and 215Y mutations, and HIV-1 RTMC, with 67N, 70R, 215F and 219Q mutations) were used to test the effectiveness of 5-aza-dC. […] Mutations include: M41L, E44D, A62V, K65R, D67N, T69DN, T69S_SS, K70R, L74V, V75I, F77L, Y115F, F116Y, V118I, Q151M, M184V, L210W, T215F and K219QE.
(§4) The effectiveness of DHAdC was tested against wild-type HIV strains and NRTI resistant HIV strains as described in Example 2. The following strains were tested: HIV-1 LAI, wild-type; HIV-I LAI-M184V-M184V mutation with resistance to lamivudine (3TC); HIV-1 RTMDR1-74V, 41L, 106A and 215Y mutations with resistance to zidovudine, didanosine, nevirapine and other non-nucleoside reverse transcriptase inhibitors; and HIV-1 RTMC-67N, 70R, 215F and 219Q with resistance to zidovudine.

In data set [2] the test system is HIV-1 RTMDR1, with 74V, 41L, 106A and 215Y mutations. Briefly: Sensitivity of NRTI-resistant HIV strain RTMDR1, MT-2 cells. The following applies: Human immunodeficiency virus 1, MT2. The class given is cell-based. As for the experimental part:
as §1, §2
Three HIV NRTI resistant strains (HIV-1 LAI-M184V, HIV-1 RTMDR1, with 74V, 41L, 106A and 215Y mutations, and HIV-1 RTMC, with 67N, 70R, 215F and 219Q mutations) were used to test the effectiveness of 5-aza-dC. […]

Another data set relates to HIV-1 LAI-M184V. Briefly: Sensitivity of NRTI-resistant HIV strain M184V, MT-2 cells. The data set is classed as cell-based. The following applies: Human immunodeficiency virus 1, MT2. Here is the method: as §1, §2, §3, §4
The next data set deals with HIV-1 LAI. Briefly: Treatment of HIV-1-infected MT-2 cells with nucleoside analogues, p24 ELISA. The class given is cell-based. The following applies: for EC50: Human immunodeficiency virus 1, MT2, wild-type HIV strain LAI, MT-2 cells. Here is the method:
The strains of HIV-1 used for primary drug screening are HIV-1 LAI or the appropriate strain of NRTI resistant HIV for studies of cross-resistance. Virus was propagated on MT-2 cells at an multiplicity of infection (MOI) of 0.01 to generate virus stocks. Briefly, the MT-2 cells were suspended in RPMI 1640 media supplemented with 10% fetal bovine serum, streptomycin and penicillin (cRPMI) and grown in a 37° C. incubator containing 5% CO2. Serial dilution of the virus and infection of MT-2 cells were followed by an ELISA detecting the capsid protein of HIV-1 (p24) and used to determine the titer of the virus stocks (50% tissue culture infectious dose (TCID50)). The ELISA was performed according to the manufacturer's instructions. The MT-2 cells are also used for visualizing the cytopathic effects of HIV-1 growth (e.g. syncytia formation).
as §1, with “plate. To generate an EC50 value, half-log concentrations of mutagenic nucleoside or nucleotide analogue capable of eradicating virus in a single passage are tested as above to generate a dose-response curve.” for “plate.”
On the technique in general: In an ELISA, binding on a coated surface is turned into a signal by an enzyme label.

For a further data set, the system named is HIV. Briefly: HIV infected SCID-Hu mice. The data set is classed as in vivo. The following applies: 30 mg/kg/day. Here is the method:
After completion of this toxicology experiment, SN1212 was tested in HIV infected SCID-Hu mice. […] The discordance between viral infectivity and conventional surrogate markers of viral load, such as p24 or HIV RNA, is not surprising, as it has also been observed in vitro, and reflects the increased proportion of non-infectious viral particles in the presence of SN1212. It is also interesting to note that, of the treated groups, the immunologic profile of the SN1212 groups most closely resemble that of the uninfected group. This is compatible with the finding that infection with less “fit” viruses provides a relative clinical benefit by preserving cellular immunity.

Data set [3] deals with Measles virus (MV) Nagahata strain. Briefly: Treatment of measles virus-infected CV-1 cells. The data set is classed as cell-based. The following applies: Measles morbillivirus. Here is the method:
MV Nagahata strain was used for drug testing. Compared to some laboratory strains, this virus strain replicates lytically in primary human embryonic lung cells and causes extensive cytopathic effect during acute infection. The virus stock was prepared by growing the virus on CV-1 cells at a MOI of 0.01. The titer of the virus stock was determined by plaque formation assay after series dilution.
Virus susceptible cells (CV-1 or BT cells) were seeded in 96-well plates at 2×10^4 cells/well. The virus was inoculated onto the cell monolayers at a MOI of 0.001˜0.002 to keep 30 plaque forming units (pfu) in each well. The inoculum was maintained in 37° C. for about one hour and the supernatant was discarded. Fresh media containing appropriate drug concentration was added in each well. Untreated control was run in parallel. Each drug was tested in triplicate. Three days after infection, cytopathic effect (CPE) was examined in the untreated control wells. […] The plates went through one “freeze-thaw” cycle to release intracellular virus. The virus stock was saved for next round of passage. The virus titer was determined as described above. Virus at a titer of 10^5˜10^6 pfu/ml was produced by this method.

The subject of data set [4] is bovine viral diarrhea virus (BVDV) Singer strain. Briefly: Treatment of BVDV-infected BT cells. The class given is cell-based. The following applies: Bovine viral diarrhea virus isolates and strains. As for the experimental part:
The BVDV strain used for drug testing was the Singer strain. This virus also causes a cytopathic effect that is measurable and allows estimation of the level of infection. The visible cytopathology can be used as an endpoint for titrating the virus by 50% tissue culture infectious dose (TCID50). The BVDV was propagated in bovine turbinate (BT cells). The virus TCID50 was determined by counting the cytopathic effect at the endpoint dilution. Briefly, confluent BT cells in 96-well plates were infected with the virus at 8 independent serial 10-fold dilutions. All the plates were incubated for five days at 37° C. in 5% CO2. Each well was scored as positive or negative appearance of visible cytopathic effect. The titers were calculated by the method of Reed and Muench, Am. J. Hyg. 27:493-497 (1938), and the mean titer and standard deviation for each of the 3 replicates for each drug concentration and the positive and negative control were calculated.
Virus susceptible cells (CV-1 or BT cells) were seeded in 96-well plates at 2×10^4 cells/well. The virus was inoculated onto the cell monolayers at a MOI of 0.001˜0.002 to keep 30 plaque forming units (pfu) in each well. The inoculum was maintained in 37° C. for about one hour and the supernatant was discarded. Fresh media containing appropriate drug concentration was added in each well. […] The virus titer was determined as described above. […]

For data set [5] the following is noted: cited from earlier work.
The test system of the next data set is HIV-1 RT proviral DNA. Briefly: Frequency of mutations to the viral genome induced by 5-aza-dC (sequencing of proviral clones). The class given is cell-based. The following applies: 30 μM. Here is the method: The viral genomic DNA from cells treated with the deoxyribonucleoside analog 5-aza-dC (30 μM) was purified using a Qiagen DNeasy® Kit. 1 μg of genomic DNA was used to amplify a 1 kb region of the HIV-1 RT proviral DNA by PCR. The PCR product was then cloned into a TOPO® cloning vector. A Millipore Miniprep Kit was used to purify plasmid containing proviral inserts. About 45 positive clones were sequenced in both directions by a Beckman Coulter CEQ 8000. The sequencing results were analyzed and assembled using the DNASTAR Stagman program. Each mutated base was counted and the mutation rate was calculated over the total number of sequenced nucleotides. Sixty-one mutations were found in 26,187 bases sequenced in the 5-aza-dC treated cells. Only one mutation in the drug-free control could be confirmed by sequencing in both directions and thus, the mutation rate in the control may be overestimated. Thus, sequencing of a fragment of the nucleic acid encoding HIV reverse transcriptase has confirmed that 5-aza-dC is mutagenic to the viral genome.

Data set [6] in a line: Cytotoxicity on MT-2 cells (MTT). The class given is cell-based. The following applies: human. Here is the method: For each compound, cytotoxicity was evaluated on MT-2 cells. MT-2 cells were seeded at 3×10^4 cells/well in 96-well plates. […] After 5 days growth in a 37° C. incubator containing 5% CO2, MTT was added to a final concentration of 0.5 mg/ml and then incubated for four hours at 37° C. 10% SDS in 0.02 N HCl was added to lyse the cells overnight at 37° C. The plates were read on a Tecan Genius microplate reader at wavelengths of 570 nm/650 nm. The dose response curve was graphed by comparing the treated cells with the untreated control and the IC50 was determined for each compound.

`Cc1cn([C@H]2C[C@H](N=[N+]=[N-])[C@@H](CO)O2)c(=O)[nH]c1=O` [AZT, zidovudine]: the EC50 in [1] was 300 nM; in [2] it was 60 nM; in the data set on HIV-1 LAI-M184V, 10 nM; with HIV-1 LAI it was 10 nM.
Turning to `Nc1ccn([C@@H]2CS[C@H](CO)O2)c(=O)n1` [Compound 3TC, lamivudine, reference compound], in data set [1], the EC50 amounted to 330 nM. For the same compound, the EC50 in the data set on HIV-1 LAI-M184V was greater than 32000 nM. In the data set with HIV, the “CD4+” value turned out to be 6.9%, the “CD4+ CD8+” value was 77% and the “CD8+” value turned out to be 4.2%. Also, in the data set with HIV (** p < 0.05), the “HIV-1 RNA” value was 2.0** log copies/10^6 cells, the Viral liter was 0** viruses/10^6 cells and the p24 is recorded as 0** pg/10^6 cells. The same compound gave an EC50 in the data set on HIV-1 LAI of 45 nM.
Regarding `Nc1ncn([C@@H]2O[C@H](CO)[C@@H](O)[C@H]2O)c(=O)n1` [Compound 5-aza-C, 5-Azacytidine], the EC50 in data set [3] is 15000 nM; in [4], 10000 nM.
Compound `Nc1ncn([C@H]2C[C@H](O)[C@@H](CO)O2)c(=O)n1` [Compound 5-aza-dC, 2′-deoxy-5-azacytidine] showed an EC50 in data set [1] of 5 nM. The same compound yielded an EC50 in data set [2] of 10 nM. In the data set with HIV-1 LAI-M184V, this compound had an EC50 of 10 nM. Further, the “time to 10% degradation” value in data set [5] (pH 7.0, 25° C.) was 5 h. The “time to 10% degradation” value in [5] (pH 7.0, 50° C.) was 0.5 h. The mutation rate % in the data set on HIV-1 RT proviral DNA (1 kb region of HIV-1 RT proviral DNA) was 0.223%. In addition, the MUTATIONS/NUCLEOTIDE in the data set on HIV-1 RT proviral DNA (1 kb region of HIV-1 RT proviral DNA, 26,187 nucleotides sequenced) is on record as 61/. In addition, in the data set on HIV-1 RT proviral DNA (number of mutations), the “AΠC CΠA mutations” value worked out at 0, the “AΠT TΠA mutations” value was found to be 8, the “CΠG GΠC mutations” value is 13 and the “GΠA AΠG mutations” value came out at 24. In the data set with HIV-1 RT proviral DNA (number of mutations), the “GΠT TΠG mutations” value amounted to 10 and the “TΠC CΠT mutations” value was 6. For the same compound, the IC50 at 5 days in [6] is greater than 10000 nM. For the same compound, the EC50 with HIV-1 LAI is 3 nM. The “eradication of HIV” value in the data set on HIV-1 LAI (viral passage in MT-2 cells) is given as “capable of eradicating HIV in a single passage”.
For the compound `CN1CN([C@H]2C[C@H](O)[C@@H](CO)O2)C(=O)N=C1N` [MeDHAdC, 5-methyl-5,6-dihydro-5-azadeoxycytidine], the EC50 with HIV-1 LAI was 10000 nM.
